Measurements published in patent US7605280B2, “Anthraquinone and its derivatives” (Biostatus Limited, priority 1998, dated 2009).
Where “and” joins values, the source holds several entries; their conditions need not be identical. Identical values can stand only once.

What was measured:
SUD4 cells = experiment: FACScan (Cytometer C) flow cytometric analysis of DRAQ5-labelled cells; format: cell-based, human
Experimental: (§1) HL60 (human promyelocytic-leukaemia cell line) and SUD4 (human B cell lymphoma cell line) were grown as suspension cultures-in-RMPI medium with 10% foetal calf serum, 1 mM glutamine and antibiotics and incubated at 37° C. in an atmosphere of 5% CO2 in air. For flow cytometry experiments, asynchronously growing suspension cultures were diluted to 2.5-4>10^5 cells/ml at 2 h prior to drug treatment. Cell cycle-perturbed populations were obtained by treating SUD4 cells with the drug etoposide (VP-16-213) at 0.25 μM for 18h. Cells were treated with DRAQ5 and FDA as described above. Cell concentrations were determined using a Coulter counter and cell cycle distribution determined using an algorithm for the normal distibution of fluorescence intensity profiles for fluorochrome stained G1 and G2 cells.
Suspension cultures were analysed by flow cytometry without washing. Human blood was obtained using routine venepuncture of a healthy donor and samples manipulated using standard haematological procedures for the isolation of mononuclear blood cells and surface antigen recognition using antibody panels (see Table 1).
Cells were analysed using one of four flow cytometers according to the excitation requirements. • Cytometer A: Single beam high power 647 nm krypton laser excitation: The system was a custom-built cytometer and incorporated an Innova 3000K krypton laser (Coherent Corp., Palo Alto, Calif., USA) tuned to the 647 nm line. Forward light scatter, 90° light scatter and fluorescence emissions were collected for 1×10^4 cells using the 90° light scatter parameter as the master signal. The optical system permitted the analysis of various fluorescence emission wavelengths including: >715 nm (termed low infra-red) and, as reported here >780 nm fluorescence (infra-red ). Forward and 90° light scatter were analysed for the identification of cell debris. Laser power was set at 200 mW and linear amplifiers were used for the fluorescence signals. The analysis optics included a 675 nm cold dichroic mirror, ambient laboratory temperature was approximately 12° C. and the sheath reservoir was maintained at 10° C. Filters were supplied by Melles Griot. Median, mean and mode parameters were calculated for the distribution of fluorescence intensity-values throughout a given cell population. In all experiments, median and mean values produced very similar results. Median values alone are reported since this parameter is less affected by the presence of highly fluorescent cells beyond the upper limit for quantification. • Cytometer B: Dual beam low power 633 nm/high power 488 nm laser excitation: The system was a FACS 440 cell sorter (Becton Dickinson Inc., Cowley, UK) incorporating a Spectra Physics argon ion laser (max 500 mW output), tuned to the 488 nm line (100 mW output), and a secondary Spectra Physics 156 helium-neon laser emitting at 633 nm (emitting <5 mW), with a temporal beam separation of about 30 μsec. Forward light scatter, 90° light scatter and fluorescence emissions were collected for 1×10^4 cells using the forward light scatter parameter as the master signal from the primary 488 nm beam, while side scatter was collected through a 488/10 nm band-pass filter. The analysis optics included: i) a cold dichroic mirror (transmitting >675 nm), ii) fluorescence from fluorescein excited by the 488 nm beam detected at a PMT guarded by a 535/15 nm band-pass filter with no signal delay, and iii) a red-sensitive PMT with an appropriate delay, additionally guarded by a 620 nm long-pass filter, to detect the transmitted beam of DRAQ5-associated fluorescence at wavelengths beyond 675 nm (high-red and extending into the infra red region of the spectrum) Forward and 90° light scatter were analysed to exclude any cell debris. All parameters were acquired at 256 channel resolution with Consort 30 software (Becton Dickinson) and subsequently analysed with WinMDI software (J. Trotter, La Jolla, Calif.). […]

viable HL60 cells = experiment: Flow cytometric analysis of DRAQ5 accumulation (Cytometers A and B); format: cell-based, human; conditions: Cytometer B, low power 633 nm, 1 h exposure
Experimental: as §1
Cells were analysed using one of four flow cytometers according to the excitation requirements. • Cytometer A: Single beam high power 647 nm krypton laser excitation: The system was a custom-built cytometer and incorporated an Innova 3000K krypton laser (Coherent Corp., Palo Alto, Calif., USA) tuned to the 647 nm line. Forward light scatter, 90° light scatter and fluorescence emissions were collected for 1×10^4 cells using the 90° light scatter parameter as the master signal. […] Forward and 90° light scatter were analysed for the identification of cell debris. […]

`CN(C)CCNc1ccc(O)c2c1C(=O)c1c(O)ccc(NCCN(C)C)c1C2=O` [DRAQ5] was tested. Which “DRAQ5 concentration at which staining saturates” value (SUD4 cells; 5 min at room temperature, SUD4, lymphocytes, monocytes (FIG. 8)) did it give?
Its value is at least 10 µM.

What about the “increase of mean fluorescence for G2 arrested populations” value (SUD4 cells; Preparation 1, VP-16 arrested versus asynchronous cells) of the same compound?
The value was 1.7 fold.

What about the “Mean fluorescence intensity (±sd) of gated population” value (“Mean fluorescence intensity (±sd)” for short) (SUD4 cells; Preparation 1, 20 μM DRAQ5, 120 min, FL3) of the same compound?
Its value is 645.1 ± 177.7.

What about the “Mean fluorescence intensity (±sd)” value (SUD4 cells; Preparation 1, cells pretreated 0.25 μM VP-16 × 18 h, 20 μM DRAQ5, 5 min) of the same compound?
Its value is 891.8 ± 126.4.

And the “Mean fluorescence intensity (±sd)” value (SUD4 cells; Preparation 1 viable cultured cells, 20 μM DRAQ5, 5 min, FL3)?
The value was 499.4 ± 143.3 and 532.4 ± 148.3.

And the “Mean fluorescence intensity (±sd)” value (SUD4 cells; Preparation 2, cells pretreated 0.25 μM VP-16, 20 μM DRAQ5, 5 min)?
The value was 902.7 ± 117.1.

And the “Mean fluorescence intensity (±sd)” value (SUD4 cells; Preparation 2 surface antigen analysis, 20 μM DRAQ5, 5 min)?
Its value is 564.3 ± 147.2.

And the “lower end of linear dose-response of 633 nm derived DRAQ5 signal” value (viable HL60 cells)?
Its value is “approximately 2.5 μM”.
